The values that follow come from ChEMBL document CHEMBL3886513, “Benzothiazole-based pyridinium compounds” (2016).

Assay [1] concerns the target Acetylcholinesterase (Electrophorus electricus, UniProt O42275). In words: (§1) AChE/BuChE Inhibition Assay: The cholinesterase assays were performed using colorimetric method reported by Ellman. The appearance of product was monitored at 412 nm for 5 min using a spectrophotometer. The reaction rates were compared and the percent inhibition due to the presence of test compounds was calculated. Inhibition curve was obtained for each compound. The linear regression parameters were determined and the IC50 values extrapolated.

A further assay concerns the target Cholinesterase (Homo sapiens, UniProt P06276). The description is as §1.
The target of assay [2] is Acetylcholinesterase (Homo sapiens, UniProt P22303). Described as §1.
Acetylcholinesterase (Homo sapiens, UniProt P22303), sequence (P22303 whole entry): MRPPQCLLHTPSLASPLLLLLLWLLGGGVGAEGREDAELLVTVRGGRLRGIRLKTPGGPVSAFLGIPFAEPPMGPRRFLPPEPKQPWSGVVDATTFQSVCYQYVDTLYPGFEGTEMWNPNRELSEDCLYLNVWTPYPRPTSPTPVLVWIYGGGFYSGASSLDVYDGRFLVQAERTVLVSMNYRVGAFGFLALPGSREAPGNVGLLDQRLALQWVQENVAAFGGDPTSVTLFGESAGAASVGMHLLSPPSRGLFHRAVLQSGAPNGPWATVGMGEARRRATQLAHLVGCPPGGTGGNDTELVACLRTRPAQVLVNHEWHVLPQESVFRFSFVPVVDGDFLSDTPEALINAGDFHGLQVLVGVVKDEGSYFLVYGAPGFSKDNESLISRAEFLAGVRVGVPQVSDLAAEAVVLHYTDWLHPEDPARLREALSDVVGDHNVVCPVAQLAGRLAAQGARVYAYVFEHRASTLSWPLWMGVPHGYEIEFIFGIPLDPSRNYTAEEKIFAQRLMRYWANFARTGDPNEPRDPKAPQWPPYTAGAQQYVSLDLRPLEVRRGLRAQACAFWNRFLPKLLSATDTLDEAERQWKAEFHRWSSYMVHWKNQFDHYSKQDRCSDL

pIC50: −log10 of the molar value.

Cholinesterase, sequence (P06276 whole entry): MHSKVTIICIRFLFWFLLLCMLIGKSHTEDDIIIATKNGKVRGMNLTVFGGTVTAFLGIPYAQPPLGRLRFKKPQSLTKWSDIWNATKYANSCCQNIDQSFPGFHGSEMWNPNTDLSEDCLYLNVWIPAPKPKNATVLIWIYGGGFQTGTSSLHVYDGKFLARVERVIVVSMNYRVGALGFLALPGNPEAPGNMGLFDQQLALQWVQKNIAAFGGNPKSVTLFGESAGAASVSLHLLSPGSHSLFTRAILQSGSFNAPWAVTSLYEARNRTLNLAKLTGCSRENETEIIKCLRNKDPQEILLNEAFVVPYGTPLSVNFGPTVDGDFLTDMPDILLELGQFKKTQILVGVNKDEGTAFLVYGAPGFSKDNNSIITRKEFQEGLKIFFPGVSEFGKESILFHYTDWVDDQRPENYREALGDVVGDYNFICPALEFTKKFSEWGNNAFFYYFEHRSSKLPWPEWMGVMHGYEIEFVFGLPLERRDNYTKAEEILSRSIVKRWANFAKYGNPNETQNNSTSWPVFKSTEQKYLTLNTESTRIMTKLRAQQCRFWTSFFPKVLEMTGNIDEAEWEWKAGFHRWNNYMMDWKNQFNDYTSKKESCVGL
Acetylcholinesterase (Electrophorus electricus, UniProt O42275), sequence (O42275 whole entry): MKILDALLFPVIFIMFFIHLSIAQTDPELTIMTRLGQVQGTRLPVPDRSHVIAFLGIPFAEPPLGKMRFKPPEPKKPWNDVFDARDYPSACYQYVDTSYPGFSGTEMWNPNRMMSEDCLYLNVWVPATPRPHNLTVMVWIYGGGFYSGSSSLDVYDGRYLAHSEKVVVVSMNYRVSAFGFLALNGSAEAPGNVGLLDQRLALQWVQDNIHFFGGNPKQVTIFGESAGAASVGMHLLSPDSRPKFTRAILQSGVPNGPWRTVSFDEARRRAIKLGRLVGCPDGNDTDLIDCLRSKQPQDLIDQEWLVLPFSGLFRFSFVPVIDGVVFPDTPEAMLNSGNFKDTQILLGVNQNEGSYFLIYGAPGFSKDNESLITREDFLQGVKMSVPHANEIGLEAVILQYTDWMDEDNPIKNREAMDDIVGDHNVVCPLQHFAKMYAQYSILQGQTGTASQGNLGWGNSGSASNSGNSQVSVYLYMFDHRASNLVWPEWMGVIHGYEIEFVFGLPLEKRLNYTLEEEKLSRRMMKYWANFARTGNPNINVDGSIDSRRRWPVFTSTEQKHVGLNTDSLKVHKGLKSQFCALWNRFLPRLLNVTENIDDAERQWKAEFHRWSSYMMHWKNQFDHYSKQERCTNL

Turning to `COc1ccc2nc(NCCc3cc[n+](Cc4ccccc4)cc3)sc2c1`, the values for the pIC50 at Acetylcholinesterase [1], at Cholinesterase and on Acetylcholinesterase [2] were 6.36, 5.52 and 6.73, respectively.
On the same counts, the results for `O=[N+]([O-])c1ccc2nc(NCCc3cc[n+](Cc4ccc(F)cc4)cc3)sc2c1` are 7.60, 4.92 and 7.02.
On the same counts, the results for `COc1ccc2nc(NCCc3cc[n+](Cc4c(F)cccc4F)cc3)sc2c1` are 6.39, 6.08 and 6.69.
Consider `COc1ccc2nc(NCCc3cc[n+](Cc4ccc(F)cc4)cc3)sc2c1`, for which the pIC50 on Acetylcholinesterase [1] is 6.27; on Cholinesterase it was 5.25; at Acetylcholinesterase [2], 6.65.
Consider `Fc1ccc(C[n+]2ccc(CCNc3nc4ccc(F)cc4s3)cc2)cc1`, for which the negative logarithm of the IC50 (pIC50) on Acetylcholinesterase [1] was 6.30; on Cholinesterase, 5.09; at Acetylcholinesterase [2], 6.57.

In general, pIC50 refers to −log10 of the IC50, conventionally taken in molar units.
